# ChEMBL document CHEMBL1126419 (Bioorg Med Chem Lett, 1992)
# Target: cAMP-dependent protein kinase (PKA) (Homo sapiens, UniProt P22694+P17612+P22612)
# Experiment: Inhibition of protein kinase A
# Assay type: protein assay
row,Compound,IC50 [µM]
1,O=C1NC(O)c2c1c1c3ccccc3[nH]c1c1[nH]c3ccccc3c21 (centres undefined),34
2,O=C1NC(=O)c2c1c1c3cccc(Cl)c3[nH]c1c1[nH]c3c(Cl)cccc3c21,> 100
3,O=C1NC(=O)c2c1c1c3ccccc3[nH]c1c1[nH]c3ccccc3c21 [STAUROSPORINE AGLYCON],60
4,O=C1NCc2c1c1c3ccccc3[nH]c1c1[nH]c3ccccc3c21 [STAUROSPORINONE],25.7
